Values joined by “and” are separate entries in the source; they are usually repeats but may differ in a detail not shown here. Equal values may be shown once.

From PMC8096218, “Global RNA profiles show target selectivity and physiological effects of peptide-delivered antisense antibiotics” (Nucleic Acids Research, 2021) come the findings set out here.

For one test, the system named is SL1344 ΔphoP. As to the kind of experiment: MIC determination by broth microdilution. It is filed as cell-based, Salmonella enterica serovar Typhimurium. Conditions: ∼10^5 cfu/ml; for MIC in μM, SL1344 ΔphoP: Table 3, three biological replicates. The method, then:
(§1) MIC values were determined by broth microdilution according to standard protocols with a few modifications ([26]). An overnight bacterial cell culture, supplemented with the appropriate antibiotic when needed, was diluted 1:100 in fresh MHB and grown to OD600 0.5. The obtained culture was diluted to ∼10^5 cfu/ml or 10^6 cfu/ml, as indicated, in non-cation-adjusted MHB. Subsequently, 190 μl bacterial solution was dispensed into a 96-well plate (Thermo Fisher Scientific) along with 10 μl of a 20x PPNA, PNA or peptide working solution. Growth was monitored by measuring the OD at 600 nm every 20 min in a Synergy H1 plate reader (Biotek) with continuous double-orbital shaking (237 cpm) at 37°C for 24 h.
Fig. S4. Growth kinetics for MIC determ ination of 10^5 cfu/m l Salmonella wt (SL1344) and its isogenic ∆phoP m utant in the pres ence of var ying concentrations of the indicated conjugates. ( A) KFF-acpP, KFF-acpP-scram bled (scr) or KFF peptide in serial dilutions from 10 µM to 0.3 µM. ( B) RXR- acpP, RXR-acpP-scram bled (scr) or RXR peptide in seria l d ilutions f rom 10 µM to 0. 3 µM. ( C) T at-acpP, T at-acpP-scrambled (scr) or T at peptide in serial dilutions from 20 µM to 0.6 µM. D ata represent the average of three biological replicates, error bars indicate standard er ror of the m ean […]
(§2) (1 picture or pasted object on this page, not shown here)
On the technique in general: In broth dilution the organism is exposed to a series of concentrations in liquid medium.

The subject of test [1] is wild-type Salmonella enterica serovar Typhimurium strain LT2. As to the kind of experiment: MIC determination by broth microdilution. The test is classed as cell-based. Conditions: Table 3; ∼10^5 cfu/ml; three biological replicates. On the procedure:
as §1
(§3) Fig. S5. Growth k inetics for MIC determ ination of 10^5 cfu/m l Salmonella wt (LT 2) and its isogenic
(§4) Pho PC m utant in the presen ce of var ying co ncentra tio n s of the in dicat ed co njugat e s. ( A) KFF-acpP,
(§5) KFF-acpP-scram bled (scr) or KFF peptide in s erial dilutions from 10 µM to 0.3 µM. ( B) RXR- acpP,
(§6) RXR- acpP-scram bled (scr) or RXR peptide in serial dilutions from 10 µM to 0.3 µ M. ( C) T at-acpP,
(§7) T at-acpP-scram bled (scr) or T at peptide in serial dilutions from 20 µM to 0.6 µM. Data represent
(§8) the average of three biological replicates, error bars indicate standard error of the m ean (SEM).
as §2

In the next test the test system is LT2 PhoP^C. As to the kind of experiment: MIC determination by broth microdilution. The test is classed as cell-based, Salmonella enterica serovar Typhimurium. Conditions: ∼10^5 cfu/ml; for increase in the MIC in the PhoP^C background compared to the wild-type strain: LT2 PhoP^C versus LT2 wt; for MIC in μM, LT2 PhoP^C: Table 3, three biological replicates. The method, then: as §1, §3, §4, §5, §6, §7, §8, §2

The test system of a further test is acpP mRNA. As to the kind of experiment: RNA-seq differential expression, target transcript. The test is classed as cell-based, Salmonella enterica serovar Typhimurium. Conditions: 5 μM KFF-/RXR-constructs, 10 μM Tat-constructs, triplicates; for reduction in acpP transcript levels (RNA-seq): 15 min post treatment, ∼10^6 cfu/ml, versus water control; for logFC acpP: edgeR, versus water, 15 min. On the procedure: (§9) Bacterial overnight cultures were diluted 1:100 in fresh MHB and grown to OD600 0.5. The obtained cultures were diluted to ∼10^6 cfu/ml in non-cation-adjusted MHB. Afterward, the bacterial solution was transferred into low-binding 5 ml tubes (LABsolute) along with the 20× PNA, peptide or PPNA solution. The final concentrations were 5 μM for KFF- and RXR-PNAs, and 10 μM for Tat-PNAs. Equimolar concentrations were used for the respective peptide control conditions. As a negative control, cells were treated with the respective volume of sterile nuclease-free water, which was used as solvent for the test compounds.
(§10) A time kinetic was performed for subsequent northern blot analysis (5, 10, 15 min), in which the reaction was stopped at the indicated time points by using RNAprotect Bacteria (Qiagen). For RNA-seq analyses, adding RNAprotect Bacteria at 15 min post treatment stopped the reactions with the indicated PPNA constructs or the respective peptide. After vortexing for 5 s, the samples were incubated at room temperature for 10 min, followed by cell pelleting at 4°C and 21 100 ×g for 20 min. Pellets were directly used for RNA isolation or stored at –20°C (<2 days) until further processing. RNA was purified from bacterial pellets using isolation protocol #3, as described above (0.5 mg/ml lysozyme, miRNeasy).
(§11) DNase treatment, cDNA library preparation and sequencing was conducted at Vertis (Munich, Germany). The RNA samples were first fragmented using ultrasound (4 pulses of 30 s each at 4°C). Then, an oligonucleotide adapter was ligated to the 3′ ends of the RNA molecules. First-strand cDNA synthesis was performed using M-MLV reverse transcriptase and the 3′ adapter as primer. The first-strand cDNA was purified and the 5′ Illumina TruSeq sequencing adapter was ligated to the 3′ end of the antisense cDNA. The resulting cDNA was PCR-amplified to about 10–20 ng/μl using a high fidelity DNA polymerase. The cDNA was purified using the Agencourt AMPure XP kit (Beckman Coulter Genomics) and was analyzed by capillary electrophoresis. For Illumina NextSeq sequencing, the samples were pooled in approximately equimolar amounts. The cDNA pool was sequenced on an Illumina NextSeq 500 system using 75 bp read length.
(§12) Reads from the RNA-Seq experiments were trimmed, filtered and mapped against the S. enterica subsp. enterica serovar Typhimurium SL1344 reference genome and the three plasmids pSLT_SL1344, pCol1B9_SL1344 (other name is p2), and pRSF1010_SL1344 ([19]). BBDuk was applied to trim bases with a Phred quality score of <10, and adapters were removed simultaneously. Reads were then mapped against the reference genome using BBMap (v38.84) and then assigned genomic features, including both coding sequences and annotated sRNAs ([19],[29]) using the featureCounts method of the Subread (2.0.1) package.
(§13) All downstream analysis was performed using packages from the R/Bioconductor project. The raw read counts were imported and analyzed with edgeR (v3.30.0). Each set of PNA-peptide conjugate experiments (i.e. experiments with KFF, RXR and Tat peptide) was analyzed simultaneously. Genes with less than 14.6 counts per million (CPM) in at least three libraries were filtered. This cutoff value was calculated using 10/L, where L is the library size of the smallest sample (minimum library size) in millions.
(§14) Raw read counts were normalized by trimmed mean of M values (TMM) normalization. Differential expression analysis was conducted using edgeR ([31]). Estimation of quasi-likelihood (QL) dispersions was then run with the […] function. Then contrasts between all samples versus the water controls were created as input for the glmQLTest function.
(§15) Genes with an absolute fold change >2 and an adjusted P-value (Benjamini–Hochberg, ([32])) <0.001 were considered differentially expressed.

The test system of test [2] is Salmonella gene expression. Put plainly: RNA-seq transcriptomic response. The test is classed as cell-based, Salmonella enterica serovar Typhimurium. Conditions: 15 min. On the procedure: as §9, §10, §11, §12, §13, §14, §15
Where [3] appears, read: edgeR, versus water, 5 μM RXR-constructs, 10 μM Tat-constructs, triplicates, listed as PNARXR.
The mark [4] stands for this setting: edgeR, versus water, 5 μM KFF-/RXR-constructs, 10 μM Tat-constructs, triplicates, listed as PNAKFF.
Setting [5] is: edgeR, versus water, 5 μM RXR-constructs, 10 μM Tat-constructs, triplicates, listed as PNATAT.

For “RXRRXRRXRRXRXB [RXR-acpP, RXR peptide conjugated to 10-mer antisense PNA against acpP]”, the “MIC in μM, SL1344 ΔphoP” value with SL1344 ΔphoP fell in the range of 1.25 to 2.5 µM. Besides, the “MIC in μM, LT2 wt” value in test [1] was found to be 1.25 µM. Moreover, in the test with LT2 PhoP^C, the “increase in the MIC in the PhoP^C background compared to the wild-type strain” value came out at 2 fold and the “MIC in μM, LT2 PhoP^C” value is 2.5 µM. In the test on acpP mRNA, the “reduction in acpP transcript levels (RNA-seq)” value (from here on “reduction … (RNA-seq)”) was 4.5- to 5 fold and the “logFC acpP” value is recorded as -2.35. In test [2] (RNA-seq, 5 μM), the “number of downregulated sRNAs, apart from the induction of AmgR” value is “four” and the “upregulation of mig-14” value came to 1.89 fold. In test [2] (setting [3]), the “logFC SL1344_0066A” value was found to be 4.762, the “logFC SL1344_2742” value is 3.54 and the “logFC mgtA” value is listed as 1.7. Further, in test [2] (edgeR, versus water, 5 μM, triplicates), the logFC hfq is recorded as -1.309.

As to “KFFKFFKFFK [KFF-acpP, KFF peptide conjugated to 10-mer antisense PNA against the translational start site of acpP]”, the “MIC in μM, SL1344 ΔphoP” value with SL1344 ΔphoP is “did not alter the MIC and 1.25 μM”. Moreover, the “MIC in μM, LT2 wt” value in test [1] was 1.25 µM. Moreover, the “MIC in μM, LT2 PhoP^C” value in the test on LT2 PhoP^C was “did not influence the inhibitory activity and 1.25 μM”. Besides, in the test on acpP mRNA, the “reduction … (RNA-seq)” value was 4.5- to 5 fold and the “logFC acpP” value was -2.241. Besides, the “number of differentially expressed genes” value in test [2] (absolute fold change >2 and FDR-adjusted P-value <0.001 versus water, 5 μM KFF-/RXR-constructs, 10 μM Tat-constructs) is given as 5. Moreover, in test [2] (RNA-seq, 5 μM), the “upregulation of AmgR transcript levels” value is given as roughly 1.9 fold; the “upregulation of mig-14, virK and yfiA mRNAs” value is 2- to 4 fold. The “logFC yfiA” value in test [2] (edgeR, versus water, 5 μM KFF-/RXR-constructs, 10 μM Tat-constructs, triplicates) was found to be 1.09. For the same sequence, in test [2] (setting [4]), the “logFC mig-14” value is given as 1.3466 and the “logFC virK” value is reported as 1.758.

Turning to “GRKKKRRQRRRYK [Tat-acpP, Tat peptide conjugated to 10-mer antisense PNA against acpP]”, in the test on SL1344 ΔphoP (SL1344 ΔphoP versus SL1344 wt), the “reduction in the MIC of the ΔphoP strain compared to wild-type Salmonella” value is 2 fold. Moreover, the “MIC in μM, SL1344 ΔphoP” value in the test on SL1344 ΔphoP worked out at 2.5 µM. Further, the “MIC in μM, LT2 wt” value in test [1] lay in the range of 2.5 to 5 µM. In addition, in the test on LT2 PhoP^C, the “increase in the MIC in the PhoP^C background compared to the wild-type strain” value was “at least two to four times more resistant” and the “MIC in μM, LT2 PhoP^C” value was 10 µM. Besides, in the test on acpP mRNA, the “reduction … (RNA-seq)” value was roughly 3 fold and the “logFC acpP” value is listed as -1.6191. The “number of differentially expressed sRNAs, apart from AmgR upregulation” value in test [2] (RNA-seq, 10 μM) is “five”. In test [2] (setting [5]), the “logFC SL1344_0066A” value worked out at 4.741 and the “logFC SL1344_2742” value worked out at 3.794. Also, the “logFC sseG” value in test [2] (edgeR, versus water, 10 μM, triplicates) turned out to be 3.37. The “logFC recJ” value in test [2] (edgeR, versus water, 10 μM, triplicates, listed as PNATAT) is reported as 1.967.
